Assay results: patent USRE47047E1, “5-[(3,3,3-trifluoro-2-hydroxy-1-arylpropyl)amino]-1H-quinolin-2-ones, a process for their production and their use as anti-inflammatory agents” (ASTRAZENECA AB, priority 2007, dated 2018)

Key:
[1] = molecular target: T1, glucocorticoid receptor (GR) (Homo sapiens, UniProt P04150); assay: Binding to the glucocorticoid receptor (GR), recombinant receptor in cytosol preparations of Sf9 cells, [3H]-dexamethasone as reference; details: reference [3H]-dexamethasone
T1 construct: made in house; host or cells: Sf9 insect cells infected with recombinant baculovirus; cytosol preparation
T1 sequence (P04150 1-777): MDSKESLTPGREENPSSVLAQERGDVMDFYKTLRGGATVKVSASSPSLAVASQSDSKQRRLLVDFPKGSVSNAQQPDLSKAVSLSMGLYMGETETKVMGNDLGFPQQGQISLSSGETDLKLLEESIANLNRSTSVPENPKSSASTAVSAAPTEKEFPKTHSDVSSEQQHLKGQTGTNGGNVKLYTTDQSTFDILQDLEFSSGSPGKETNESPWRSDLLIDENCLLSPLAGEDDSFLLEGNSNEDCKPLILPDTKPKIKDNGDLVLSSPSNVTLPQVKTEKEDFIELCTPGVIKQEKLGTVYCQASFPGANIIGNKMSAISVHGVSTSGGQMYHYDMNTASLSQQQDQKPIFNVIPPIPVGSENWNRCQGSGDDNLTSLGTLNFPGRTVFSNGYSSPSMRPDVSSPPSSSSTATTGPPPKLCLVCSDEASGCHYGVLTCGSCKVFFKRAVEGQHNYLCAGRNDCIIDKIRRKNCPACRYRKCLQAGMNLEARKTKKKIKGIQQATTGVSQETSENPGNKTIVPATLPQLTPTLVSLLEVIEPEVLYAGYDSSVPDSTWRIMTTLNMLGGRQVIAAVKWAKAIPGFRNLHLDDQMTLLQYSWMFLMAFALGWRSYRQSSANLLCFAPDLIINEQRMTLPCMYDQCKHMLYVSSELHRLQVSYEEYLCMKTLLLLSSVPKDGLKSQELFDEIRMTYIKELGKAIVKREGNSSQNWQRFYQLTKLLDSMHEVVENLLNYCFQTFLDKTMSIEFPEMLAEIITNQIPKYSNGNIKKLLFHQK
Excerpt: The binding of the substances to the glucocorticoid receptor (GR) and other steroid hormone receptors (mineral corticoid receptor (MR), progesterone receptor (PR) and androgen receptor (AR)) is examined with the aid of recombinantly produced receptors. Cytosol preparations of Sf9 cells, which had been infected with recombinant baculoviruses, which code for the GR, are used for the binding studies. In comparison to reference substance [^3H]-dexamethasone, the substances show a high to very high affinity to GR.

[2] = system: IL-8 secretion in human monocyte cell line THP-1; assay: Inhibition of LPS-triggered secretion of cytokine IL-8 in THP-1 cells (ELISA); assay type: cell-based; details: for IC50: Homo sapiens, THP-1 cells, LPS-triggered, ELISA of supernatant, read-out: IC50(IL8); for efficacy of IL-8 inhibition: in comparison with dexamethasone as reference
Description: The concentration of the cytokines was determined in the supernatant by means of commercially available ELISA kits.

Compound	IC50 [1] [nM]	IC50 [2] [nM]	efficacy of IL-8 inhibition [2] [%]
COc1ccc(C(Nc2cccc3[nH]c(=O)ccc23)C(O)(CSC)C(F)(F)F)c(F)c1 (stereo not drawn) [Example 1, 5-{[1-(2-Fluoro-4-methoxyphenyl)-3,3,3-trifluoro-2-hydroxy-2-([methylsulfanyl]methyl)propyl]amino}-1H-quinolin-2-one]	6.8	–	–
COc1c(F)cc(Cl)cc1C(Nc1cc(F)cc2[nH]c(=O)ccc12)C(O)(CO)C(F)(F)F (stereo not drawn) [Example 8, 5-{[1-(5-Chloro-3-fluoro-2-methoxyphenyl)-3,3,3-trifluoro-2-hydroxy-2-(hydroxymethyl)-propyl]amino}-7-fluoro-1H-quinolin-2-one]	–	3.1	80

Continued, in another order:

IC50 [1] [nM]	IC50 [2] [nM]	Compound	efficacy of IL-8 inhibition [2] [%]
5.7	0.61	CCSCC(O)(C(Nc1cc(F)cc2[nH]c(=O)ccc12)c1ccc(OC)c(F)c1Cl)C(F)(F)F (stereo not drawn) [Example 4, 5-{[1-(2-Chloro-3-fluoro-4-methoxyphenyl)-2-([ethylsulfanyl]methyl)-3,3,3-trifluoro-2-hydroxypropyl]amino}-7-fluoro-1H-quinolin-2-one]	97
3.1	0.19	COCC(O)(C(Nc1cc(F)cc2[nH]c(=O)ccc12)c1ccc(OC)c(F)c1Cl)C(F)(F)F (stereo not drawn) [Example 5, 5-{[1-(2-Chloro-3-fluoro-4-methoxyphenyl)-3,3,3-trifluoro-2-hydroxy-2-(methoxymethyl)propyl]amino}-7-fluoro-1H-quinolin-2-one]	98
7.1	0.44	COc1ccc(C(Nc2cc(F)cc3[nH]c(=O)ccc23)C(O)(CO)C(F)(F)F)c(Cl)c1F (stereo not drawn) [Example 7, 5-{[1-(2-Chloro-3-fluoro-4-methoxyphenyl)-3,3,3-trifluoro-2-hydroxy-2-(hydroxymethyl)-propyl]amino}-7-fluoro-1H-quinolin-2-one]	98
